Data published in the C3SDB collision cross section collection.
Values joined by “and” are separate entries in the source; they are usually repeats but may differ in a detail not shown here. Identical values can stand only once.

Experiments:
[1] = instrument: DT, single field, calibrated with ESI Low Concentration Tuning Mix (Agilent)
[2] = instrument: TW, calibrated with polyalanine and drug standards

SMILES | collision cross section (N2) ([1]; [M-H]-) | collision cross section (N2) ([2]; [M+H]+) | further results
Cn1cnc2c(ncn2[C@@H]2O[C@H](CO)[C@@H](O)[C@H]2O)c1=N [1-METHYLADENOSINE] | 162.7 Å² |  | collision cross section (N2) ([1]; [M+H]+): 160 Å² and 164.7 Å²; collision cross section (N2) ([1]; [M+Na]+): 170.7 Å²
CC(=O)c1ccc(O)cc1O [2',4'-DIHYDROXYACETOPHENONE] | 126.3 Å² |  | collision cross section (N2) ([1]; [M+H]+): 127.2 Å²
O=c1cccc(O)[nH]1 [2,6-DIHYDROXYPYRIDINE] | 113.8 Å² |  | 
CC(C)(N)C(=O)O [2-AMINOISOBUTYRATE] |  |  | collision cross section (N2) ([1]; [M+H]+): 123.8 Å²
Nc1ccccc1O [2-AMINOPHENOL] | 118 Å² |  | collision cross section (N2) ([1]; [M+H]+): 118.3 Å² and 124.8 Å²
O=C(O)C(O)c1ccc(O)c(O)c1 (stereo unspecified) [3,4 DIHYDROXYMANDELATE] | 137.4 Å² |  | 
O=C(O)C1=CC(=O)[C@@H](O)[C@H](O)C1 [3-DEHYDROSHIKIMATE] | 132 Å² |  | collision cross section (N2) ([1]; [M+Na]+): 149.1 Å²
OCc1cccc(O)c1 [3-HYDROXYBENZYL ALCOHOL] | 122.3 Å² |  | 
CC(O)(CC(=O)O)CC(=O)O [3-HYDROXYMETHYLGLUTARATE] | 126.5 Å² |  | collision cross section (N2) ([1]; [M+Na]+): 135.9 Å²
COc1cc(C(O)C(=O)O)ccc1O (stereo unspecified) [3-METHOXY-4-HYDROXYMANDELATE] | 143.5 Å² |  | 
Cn1cnc(N)c2ncnc1-2 [3-METHYLADENINE] |  |  | collision cross section (N2) ([1]; [M+H]+): 126.3 Å²
Cn1cncc1CCN [3-METHYLHISTAMINE] |  |  | collision cross section (N2) ([1]; [M+H]+): 123.8 Å²
O=C(O)/C=C/c1ccc(O)cc1 [4-COUMARATE] | 131.1 Å² |  | 
O=C(O)Cc1cnc[nH]1 [4-IMIDAZOLEACETATE] |  |  | collision cross section (N2) ([1]; [M+H]+): 123.9 Å²
Cc1ncc(CO)c(C(=O)O)c1O [4-PYRIDOXATE] | 130.6 Å² |  | collision cross section (N2) ([1]; [M+H]+): 135.5 Å²; collision cross section (N2) ([1]; [M+K]+): 147.4 Å²; collision cross section (N2) ([1]; [M+Na]+): 150.2 Å²
O=C(O)Cc1c[nH]c2ccc(O)cc12 [5-HYDROXYINDOLEACETATE] | 137.1 Å² |  | collision cross section (N2) ([1]; [M+H]+): 140.9 Å²; collision cross section (N2) ([1]; [M+Na]+): 148.4 Å²
NC[C@H](O)CC[C@H](N)C(=O)O [5-HYDROXYLYSINE] | 134 Å² |  | collision cross section (N2) ([1]; [M+H]+): 134.9 Å²; collision cross section (N2) ([1]; [M+Na]+): 137.5 Å²
Cc1cnc(=O)[nH]c1N [5-METHYLCYTOSINE] |  |  | collision cross section (N2) ([1]; [M+H]+): 121 Å² and 125.4 Å²; collision cross section (N2) ([1]; [M+Na]+): 135.5 Å²
Nc1ncnc2c1ncn2[C@@H]1O[C@H](COP(=O)(O)O)[C@@H](O)[C@H]1O [ADENOSINE MONOPHOSPHATE] |  |  | collision cross section (N2) ([1]; [M+H]+): 171.4 Å²; collision cross section (N2) ([1]; [M+Na]+): 177 Å²
Nc1ncnc2c1ncn2[C@@H]1O[C@H](COP(=O)(O)OP(=O)(O)OP(=O)(O)O)[C@@H](O)[C@H]1O [ADENOSINE TRIPHOSPHATE] | 188.2 Å² and 188.3 Å² |  | collision cross section (N2) ([1]; [M+H]+): 196.6 Å² and 196.9 Å²; collision cross section (N2) ([1]; [M+Na-2H]-): 193.5 Å²; collision cross section (N2) ([1]; [M+Na]+): 204 Å² and 204.2 Å²
Nc1ncnc2c1ncn2[C@@H]1O[C@H](COP(=O)(O)O)[C@@H](O)[C@H]1O [ADENOSINE-MONOPHOSPHATE] | 173.1 Å² |  | collision cross section (N2) ([1]; [M+Na-2H]-): 179.5 Å²

SMILES | collision cross section (N2) ([1]; [M-H]-) | collision cross section (N2) ([2]; [M+H]+) | further results
OC[C@H]1O[C@H](O)[C@H](O)[C@@H](O)[C@@H]1O [ALPHA-D-GLUCOSE] |  |  | collision cross section (N2) ([1]; [M+Na]+): 146.6 Å²
OC1OC[C@H](O)[C@H](O)[C@H]1O (stereo partly specified) [ARABINOSE] |  |  | collision cross section (N2) ([1]; [M+Na]+): 134.6 Å²
O=C1O[C@H]([C@@H](O)CO)C(O)=C1O [ASCORBATE] | 127.7 Å² |  | collision cross section (N2) ([1]; [M+Na]+): 141.6 Å²
N[C@@H](CC(=O)O)C(=O)O [ASPARTATE] | 118.6 Å² and 118.7 Å² |  | 
O=P(O)(O)OC(CO)CO [BETA-GLYCEROPHOSPHATE] | 126.3 Å² |  | collision cross section (N2) ([1]; [M+Na-2H]-): 147.2 Å²; collision cross section (N2) ([1]; [M+Na]+): 140.5 Å²
CCCCC(CC)COC(=O)c1ccccc1C(=O)OCC(CC)CCCC (stereo unspecified) [BIS(2-ETHYLHEXYL)PHTHALATE] |  |  | collision cross section (N2) ([1]; [M+H2O-H]-): 203 Å²; collision cross section (N2) ([1]; [M+H]+): 212.2 Å²
NCCOP(=O)(O)OP(=O)(O)OC[C@H]1O[C@@H](n2ccc(N)nc2=O)[C@H](O)[C@@H]1O [CDP-ETHANOLAMINE] | 188.2 Å² |  | collision cross section (N2) ([1]; [M+Na-2H]-): 186.1 Å²
C[C@H](CCC(=O)O)[C@H]1CC[C@H]2[C@@H]3[C@H](O)C[C@@H]4C[C@H](O)CC[C@]4(C)[C@H]3C[C@H](O)[C@]12C [CHOLATE] | 203.1 Å² |  | collision cross section (N2) ([1]; [M+Na]+): 197.5 Å²
CCCCCCCCCCCCCCCC(=O)O[C@H]1CC[C@@]2(C)C(=CC[C@H]3[C@@H]4CC[C@H]([C@H](C)CCCC(C)C)[C@@]4(C)CC[C@@H]32)C1 [CHOLESTERYL PALMITATE] |  |  | collision cross section (N2) ([1]; [M+Na]+): 286.3 Å²
OC[C@H]1O[C@H](O[C@]2(CCl)O[C@H](CCl)[C@@H](O)[C@@H]2O)[C@H](O)[C@@H](O)[C@H]1Cl [SUCRALOSE] |  |  | collision cross section (N2) ([2]; [M+Na]+): 177.2 Å²
CC(=O)NS(=O)(=O)c1ccc(N)cc1 [SULFACETAMIDE] |  | 146.9 Å² | 
Cc1cc(C)nc(NS(=O)(=O)c2ccc(N)cc2)n1 [SULFAMETHAZINE] |  | 161.7 Å² | 
C=CC[C@@H]1/C=C(\C)C[C@H](C)C[C@H](OC)[C@H]2O[C@@](O)(C(=O)C(=O)N3CCCC[C@H]3C(=O)O[C@H](/C(C)=C/[C@@H]3CC[C@@H](O)[C@H](OC)C3)[C@H](C)[C@@H](O)CC1=O)[C@H](C)C[C@@H]2OC [TACROLIMUS] |  |  | collision cross section (N2) ([2]; [M+Na]+): 267 Å²
C[C@]12CC[C@H]3[C@@H](CCC4=CC(=O)CC[C@@]43C)[C@@H]1CC[C@@H]2O [TESTOSTERONE] |  | 170.6 Å² | 
COc1ccc2c(c1)OC[C@@H](Cc1ccc(OC)c(OC)c1)[C@H]2O [TETRAHYDROSAPPANONE A TRIMETHYL ETHER] |  |  | collision cross section (N2) ([2]; [M+H-H2O]+): 172 Å²
CC(=O)Oc1ccc(/C=C/c2cc(OC(C)=O)cc(OC(C)=O)c2)cc1 [TRIACETYLRESVERATROL] |  | 171.1 Å² | 
CC1(C)C2C[C@@H](O)[C@]3(C)C(CC[C@@]4(C)[C@H](c5ccoc5)OC(=O)[C@H]5O[C@]543)[C@@]2(C)[C@@H](O)C[C@H]1O (stereo partly specified) [TRIDESACETOXYKHIVORIN] |  | 201.5 Å² | 
CCC(C)C(=O)O[C@@H]1C[C@@]2(C)[C@H](c3ccoc3)OC(=O)CC23OC2(C)O[C@]14[C@]1(C)[C@@H](CC(=O)OC)C5(C)CC1(O)[C@](O)(C5OC(=O)C1(C)OC1C)[C@@H](OC(C)=O)[C@]34O2 (stereo partly specified) [UTILIN] |  | 252.5 Å² | 
Cc1cccc(C)c1NC1=NCCCS1 [XYLAZINE] |  | 147.8 Å² | 
COc1cc([C@@H]2c3cc4c(c(O)c3C[C@H]3COC(=O)[C@@H]32)OCO4)cc(OC)c1OC [beta-PELTATIN] |  |  | collision cross section (N2) ([2]; [M+H-H2O]+): 189 Å²

Second part, led by results:

collision cross section (N2) ([1]; [M-H]-) | collision cross section (N2) ([2]; [M+H]+) | SMILES | further results
 | 150.8 Å² | Nc1ccc(S(=O)(=O)Nc2nccs2)cc1 [SULFATHIAZOLE] | 
 | 193.5 Å² | O=C1C(CCS(=O)c2ccccc2)C(=O)N(c2ccccc2)N1c1ccccc1 (stereo unspecified) [SULFINPYRAZONE] | 
 | 159.1 Å² | Cc1noc(NS(=O)(=O)c2ccc(N)cc2)c1C [SULFISOXAZOLE] | 
 | 183.3 Å² | CCN1CCCC1CNC(=O)c1cc(S(N)(=O)=O)ccc1OC (stereo unspecified) [SULPIRIDE] | 
 | 188.7 Å² | CN1CC(=O)N2[C@H](c3ccc4c(c3)OCO4)c3[nH]c4ccccc4c3C[C@@H]2C1=O [TADALAFIL] | 
 | 182 Å² | COc1ccc(-c2cc(=O)c3c(OC)c(OC)c(OC)c(OC)c3o2)cc1 [TANGERITIN] | 
 | 169.8 Å² | CN1C(C(=O)Nc2ccccn2)=C(O)c2sccc2S1(=O)=O [TENOXICAM] | 
 | 144 Å² | c1ccc(C2CN3CCSC3=N2)cc1 (stereo unspecified) [TETRAMIZOLE] | 
 | 201.9 Å² | CN1CCN(CC/C=C2/c3ccccc3Sc3ccc(S(=O)(=O)N(C)C)cc32)CC1 [THIOTHIXENE] | 
 | 219.8 Å² | CCN(CC)CCOc1ccc2c(c1)C(=O)c1cc(OCCN(CC)CC)ccc1-2 [TILORONE] | 
 | 180.7 Å² | Clc1ccc(C(Cn2ccnc2)OCc2ccsc2Cl)c(Cl)c1 (stereo unspecified) [TIOCONAZOLE] | 
 | 173.3 Å² | Cc1ccc(S(=O)(=O)NC(=O)NN2CCCCCC2)cc1 [TOLAZAMIDE] | 
 | 161.9 Å² | CCCCNC(=O)NS(=O)(=O)c1ccc(C)cc1 [TOLBUTAMIDE] | 
 | 197.1 Å² | CC1(C)O[C@@H]2C[C@H]3[C@@H]4CCC5=CC(=O)C=C[C@]5(C)[C@@]4(F)[C@@H](O)C[C@]3(C)[C@]2(C(=O)CO)O1 [TRIAMCINOLONE ACETONIDE] | 
 | 155.4 Å² | Nc1nc(N)c2nc(-c3ccccc3)c(N)nc2n1 [TRIAMTERENE] | 
 | 171.2 Å² | COc1cc(Cc2cnc(N)nc2N)cc(OC)c1OC [TRIMETHOPRIM] | 
 | 169.3 Å² | C[C@H](CCC(=O)O)[C@H]1CC[C@H]2[C@@H]3CC[C@@H]4CCCC[C@]4(C)[C@H]3CC[C@]12C [URSOCHOLANIC ACID] | 
 | 139.1 Å² | COc1c2ccoc2cc2oc(C)cc(=O)c12 [VISNAGIN] | 
 | 148.3 Å² | CC1(C)C=Cc2cc3ccc(=O)oc3cc2O1 [XANTHYLETIN] | 
 | 141.1 Å² | NC(Cc1ccc(F)cc1)C(=O)O (stereo unspecified) [p-FLUOROPHENYLALANINE] | 
